This is an account of results in US6423689B1, “Peptidyl calcium channel blockers” (Warner-Lambert Company, priority 1997, dated 2002).

Each structure is given as a SMILES string. pIC50: −log10 of the molar value.

Data set [1] concerns the target T1, L-type Ca2+ channels in A10 cells (Rattus norvegicus, UniProt P22002).
T1 construct: which endogenously expresses L-type calcium channels; host or cells: A10 rat aortic smooth muscle cells
Kind of data set: Inhibition of L-type calcium flux in A10 cells (FLIPR). The data set is classed as cell-based. How it is done: Measurement of L-type Ca^2+ Channel Blocking Potencies of Compounds in A10 cells
Calcium flux through voltage-sensitive calcium channels was assessed by time-resolved monitoring of the fluorescence of pre-loaded calcium-sensitive dyes using FLIPR, a fluorescent image plate reader (Molecular Devices Co.). The A10 smooth muscle cell line derived from embryonic thoracic aorta of the DBIX rat (ATCC, CRL-1476) which endogenously expresses L-type calcium channels. The growth media for A10 cells was Ham's F12/DME high glucose (Irvine Scientific, 9052), supplemented with 20% fetal bovine serum (HyClone Labs, A-1115-L), and 1% each of L-glutamine and antibiotic-antimycotic (same source as above).
Cells were grown to confluency and replated on black-sided 96-well plates (Costar, 3603) for use in FLIPR. Two days after replating, growth media was removed and cells were loaded at 37° C. with 100 μL media containing 1 μM Oregon Green 488 Bapta-1 dye (Molecular Probes, O-6807) for 1 to 3 hours. The dye-containing media was then washed away with buffer (composition in mM: 1.25 CaCl2, 1.2 MgSO4, 11 glucose, 10 HEPES, 3.0 KCl, 137.0 NaCl, pH 7.4 with Tris base) in a Denley Cellwash (Labsystems, CW018B). The residual buffer volume was adjusted to 50 μL. A 5 minute drug-pre-incubation period at 35° C. was initiated when 50 μL of drug-containing buffer was pipetted into the cell plate with the 96-well pipettor integrated in the FLIPR apparatus. Fluorescent counts were monitored at 20 second intervals for 360 seconds, beginning 60 seconds prior to the delivery of drug-containing buffer. Following drug addition, 100 μL aliquots of a high K^+, depolarizing stimulus (composition in mM: 1.25 CaCl2, 1.2 MgSO4, 11 glucose, 10 HEPES, 140.0 KCl, pH 7.4 with Tris base) were added to each well and fluorescence was monitored at 1 second intervals for 120 seconds, beginning 10 seconds prior to the stimulus addition. CCD camera exposure time was 0.4 seconds, laser excitation was at 488 nm with a power of 0.2-0.5W, and a 510 to 560 nm bandpass interference filter preceded the camera.
Data was analyzed as a summation of fluorescent counts above basal during the stimulation period (an approximation of area under the curve), after normalizing the data with a spatial uniformity correction (for variations in laser illumination and cell density) and a negative control correction (zero calcium increase defined as the fluorescence reading in the presence of saturating pharmacologic block of the respective calcium channel). Drug effects were expressed as percent inhibition of fluorescence from an average of 8 K^+-stimulated wells which were pre-treated in the drug incubation period with buffer only.
In the A10 cells, the pharmacologic agent used to define zero calcium influx was nitrendipine (RBI, N-144), at a final concentration of 1.0×10^−6 M.
Background: A change in cytosolic calcium serves as a functional read-out for many receptors and channels.

Data set [2] concerns the target T2, N-type Ca2+ channels in IMR-32 cells (Homo sapiens, UniProt Q00975).
T2 construct: host or cells: IMR-32 cells, differentiated with dibutyryl cAMP and bromodeoxyuridine
Kind of data set: Inhibition of N-type calcium flux in IMR-32 cells (Indo-1 fluorescence, nitrendipine present). The data set is classed as cell-based. The settings on record: for inhibition at 1 µM / inhibition at 10 µM: IMR-32; for pIC50: IMR-32 cells, 5 μM nitrendipine, K+ depolarization. A digest of the protocol:
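Differentiated IMR-32 cells (7–13 days) were loaded with 5 μM Indo-1 AM, preincubated with compound for 10 min at 30° C, and depolarized with KCl/CaCl2 stimulation solution, with 5 μM nitrendipine blocking L-channels. Peak-minus-basal 400/490 nm emission ratio was plotted against drug concentration, and IC50 came from four-parameter logistic fits.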

T1 sequence (P22002 whole entry): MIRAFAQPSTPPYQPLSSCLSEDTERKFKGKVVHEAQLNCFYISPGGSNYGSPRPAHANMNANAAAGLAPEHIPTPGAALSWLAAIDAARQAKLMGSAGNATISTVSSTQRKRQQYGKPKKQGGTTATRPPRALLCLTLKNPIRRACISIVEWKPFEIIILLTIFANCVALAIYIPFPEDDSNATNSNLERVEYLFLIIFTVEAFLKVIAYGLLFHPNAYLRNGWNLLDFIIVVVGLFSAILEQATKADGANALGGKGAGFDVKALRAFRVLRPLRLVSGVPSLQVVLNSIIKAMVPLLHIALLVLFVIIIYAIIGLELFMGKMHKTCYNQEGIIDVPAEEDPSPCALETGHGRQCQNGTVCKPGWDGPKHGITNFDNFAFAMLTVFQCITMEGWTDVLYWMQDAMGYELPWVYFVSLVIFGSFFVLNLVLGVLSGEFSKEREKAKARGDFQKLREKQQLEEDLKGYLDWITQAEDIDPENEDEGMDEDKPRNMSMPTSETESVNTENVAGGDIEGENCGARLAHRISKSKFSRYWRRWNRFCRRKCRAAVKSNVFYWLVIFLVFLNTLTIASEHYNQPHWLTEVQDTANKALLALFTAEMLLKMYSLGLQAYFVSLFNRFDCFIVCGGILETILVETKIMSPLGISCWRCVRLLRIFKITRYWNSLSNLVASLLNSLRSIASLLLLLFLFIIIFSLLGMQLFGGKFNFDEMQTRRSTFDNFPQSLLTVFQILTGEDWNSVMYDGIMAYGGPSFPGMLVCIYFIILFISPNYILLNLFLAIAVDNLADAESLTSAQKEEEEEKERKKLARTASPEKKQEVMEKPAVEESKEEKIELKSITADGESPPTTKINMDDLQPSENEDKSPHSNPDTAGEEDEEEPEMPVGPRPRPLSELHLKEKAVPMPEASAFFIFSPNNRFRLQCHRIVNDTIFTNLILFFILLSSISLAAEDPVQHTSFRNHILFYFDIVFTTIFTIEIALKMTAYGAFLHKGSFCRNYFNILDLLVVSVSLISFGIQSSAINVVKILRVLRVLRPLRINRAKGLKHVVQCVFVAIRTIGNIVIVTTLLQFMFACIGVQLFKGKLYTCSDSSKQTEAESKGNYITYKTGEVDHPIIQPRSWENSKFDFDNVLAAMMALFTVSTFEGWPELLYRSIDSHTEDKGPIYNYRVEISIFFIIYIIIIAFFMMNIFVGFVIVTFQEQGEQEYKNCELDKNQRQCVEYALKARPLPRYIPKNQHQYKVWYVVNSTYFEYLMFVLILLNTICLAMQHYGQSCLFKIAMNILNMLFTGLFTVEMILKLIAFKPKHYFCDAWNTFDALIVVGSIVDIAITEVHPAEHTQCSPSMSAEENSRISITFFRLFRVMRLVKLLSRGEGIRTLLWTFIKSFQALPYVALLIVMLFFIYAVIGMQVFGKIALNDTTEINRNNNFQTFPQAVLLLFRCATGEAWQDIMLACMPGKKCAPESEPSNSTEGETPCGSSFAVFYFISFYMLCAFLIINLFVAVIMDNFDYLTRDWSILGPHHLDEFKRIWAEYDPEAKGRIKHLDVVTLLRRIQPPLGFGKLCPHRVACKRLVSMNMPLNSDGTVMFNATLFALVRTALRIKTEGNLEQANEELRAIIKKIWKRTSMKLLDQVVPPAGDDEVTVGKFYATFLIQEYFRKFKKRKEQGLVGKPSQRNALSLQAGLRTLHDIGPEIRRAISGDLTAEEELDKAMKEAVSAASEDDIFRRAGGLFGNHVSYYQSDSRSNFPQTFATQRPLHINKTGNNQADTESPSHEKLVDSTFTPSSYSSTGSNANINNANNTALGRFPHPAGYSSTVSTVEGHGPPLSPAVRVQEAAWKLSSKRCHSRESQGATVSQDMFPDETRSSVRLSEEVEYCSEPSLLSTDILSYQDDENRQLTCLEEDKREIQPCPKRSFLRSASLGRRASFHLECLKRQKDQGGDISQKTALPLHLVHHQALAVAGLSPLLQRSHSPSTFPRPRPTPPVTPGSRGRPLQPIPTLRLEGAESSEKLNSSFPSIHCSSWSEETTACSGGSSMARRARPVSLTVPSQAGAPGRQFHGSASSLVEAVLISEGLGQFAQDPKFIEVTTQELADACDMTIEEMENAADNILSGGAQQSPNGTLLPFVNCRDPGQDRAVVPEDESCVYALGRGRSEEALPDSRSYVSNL
T1 sequence (P54290 25-944 partner limits assumed): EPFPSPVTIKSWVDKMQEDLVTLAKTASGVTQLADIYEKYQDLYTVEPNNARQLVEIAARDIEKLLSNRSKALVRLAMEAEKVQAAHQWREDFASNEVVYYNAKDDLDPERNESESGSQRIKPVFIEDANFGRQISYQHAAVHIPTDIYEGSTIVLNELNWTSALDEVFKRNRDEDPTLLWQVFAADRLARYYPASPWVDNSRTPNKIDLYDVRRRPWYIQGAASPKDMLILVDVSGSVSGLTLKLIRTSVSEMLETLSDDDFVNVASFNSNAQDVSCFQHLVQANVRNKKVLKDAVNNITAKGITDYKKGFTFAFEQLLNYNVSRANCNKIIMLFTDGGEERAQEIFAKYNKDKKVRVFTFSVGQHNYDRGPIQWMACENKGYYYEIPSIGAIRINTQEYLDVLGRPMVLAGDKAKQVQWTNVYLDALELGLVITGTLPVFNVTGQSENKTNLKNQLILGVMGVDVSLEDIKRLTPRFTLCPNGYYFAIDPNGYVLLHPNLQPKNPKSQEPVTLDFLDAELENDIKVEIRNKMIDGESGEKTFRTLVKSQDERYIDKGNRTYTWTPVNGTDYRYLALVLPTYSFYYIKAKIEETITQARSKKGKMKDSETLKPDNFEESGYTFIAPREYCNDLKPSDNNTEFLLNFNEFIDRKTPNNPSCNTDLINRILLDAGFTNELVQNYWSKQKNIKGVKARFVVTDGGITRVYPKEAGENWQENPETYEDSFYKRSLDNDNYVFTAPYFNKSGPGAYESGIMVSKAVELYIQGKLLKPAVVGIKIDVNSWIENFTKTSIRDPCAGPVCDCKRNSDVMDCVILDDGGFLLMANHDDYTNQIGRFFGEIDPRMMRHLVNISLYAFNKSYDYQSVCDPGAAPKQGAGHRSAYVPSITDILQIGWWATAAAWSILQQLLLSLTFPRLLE
T1 sequence (P54290 945-1091 partner limits assumed): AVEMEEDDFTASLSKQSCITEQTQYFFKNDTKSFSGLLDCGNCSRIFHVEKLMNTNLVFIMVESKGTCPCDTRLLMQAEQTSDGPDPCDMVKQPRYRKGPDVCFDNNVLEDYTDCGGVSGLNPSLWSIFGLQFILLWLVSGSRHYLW
T1 sequence (P54287 whole entry partner): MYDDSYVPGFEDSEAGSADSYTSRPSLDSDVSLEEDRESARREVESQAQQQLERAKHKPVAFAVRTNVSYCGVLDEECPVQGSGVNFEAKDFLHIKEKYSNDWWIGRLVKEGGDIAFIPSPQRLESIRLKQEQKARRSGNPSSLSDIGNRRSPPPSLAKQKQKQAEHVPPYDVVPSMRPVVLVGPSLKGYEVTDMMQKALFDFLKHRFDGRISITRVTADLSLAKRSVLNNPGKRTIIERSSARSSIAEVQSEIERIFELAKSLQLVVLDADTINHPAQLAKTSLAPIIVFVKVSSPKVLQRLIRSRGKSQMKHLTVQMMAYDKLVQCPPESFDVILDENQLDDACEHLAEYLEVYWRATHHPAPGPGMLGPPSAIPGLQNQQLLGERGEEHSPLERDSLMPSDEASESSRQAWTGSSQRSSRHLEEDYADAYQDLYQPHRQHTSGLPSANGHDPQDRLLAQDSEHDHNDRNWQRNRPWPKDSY

On to `COc1cc(NC(=O)N[C@@H](CC(C)C)C(=O)N[C@@H](Cc2ccc(OCc3ccccc3)cc2)C(=O)OC(C)(C)C)cc(OC)c1OC` (relative stereo) [Example 67, [S-(R*,R*)]-3-(4-Benzyloxy-phenyl)-2-{4-methyl-2-[3-(3,4,5-trimethoxy-phenyl)-ureido]-pentanoylamino}-propionic acid tert-butyl ester], for which the pIC50 – broadly, −log10 of the IC50, conventionally taken in molar units – in data set [1] was 5.52. Also, in data set [2] (1 μM), the “Inhibition of Calcium Flux in IMR-32 Cells % Inhibition at 1 μM” value worked out at 10%. Also, the “Inhibition of Calcium Flux in IMR-32 Cells % Inhibition at 10 μM” value in data set [2] (10 μM) stood at 19%.

On to `CC(C)C[C@H](NC(=O)N1CCCCCC1)C(=O)N[C@@H](Cc1ccc(Cc2ccccc2)cc1)C(=O)NC(C)(C)C` [Example 53, [S-(R*,R*)]-Azepane-1-carboxylic acid {1-[2-(4-benzyl-phenyl)-1-tert-butylcarbamoyl-ethylcarbamoyl]-3-methyl-butyl}-amide], for which the melting point (commonly the temperature, or range, at which the solid turns liquid) is 165 to 166 °C. In addition, the negative-log IC50 (pIC50) in data set [1] was 6.85. In data set [2], the inhibition (commonly the percentage by which the read-out fell short of the control) at 1 µM was found to be 61% and the inhibition at 10 µM was 89%.

`CC(C)C[C@H](NC(=O)N1CCCCCC1)C(=O)N[C@@H](Cc1ccc(NCc2ccccc2)cc1)C(=O)NC(C)(C)C` [Example 132, [S-(R*,R*)]-Azepane-1-carboxylic acid {1-[2-(4-benzylamino-phenyl)-1-tert-butylcarbamoyl-ethylcarbamoyl]-3-methyl-butyl}-amide] displayed a melting point of 89 to 90 °C. Moreover, the pIC50 in data set [1] was 6.04. In data set [2], the inhibition at 1 µM came to 37%, the inhibition at 10 µM worked out at 83% and the negative logarithm of the IC50 (pIC50) was 6.05.

For the molecule `CC(C)C[C@H](NC(=O)N1CCCCCC1)C(=O)N[C@@H](Cc1ccc(C#CC(C)(C)C)cc1)C(=O)NC(C)(C)C` [Example 135, [S-(R*,R*)]-Azepane-1-carboxylic acid (1-{1-tert-butylcarbamoyl-2-[4-(3,3-dimethyl-but-1-ynyl)-phenyl]-ethylcarbamoyl}-3-methyl-butyl)-amide], the melting point was 180 to 181 °C. The pIC50 in data set [1] was 6.17. In data set [2], the inhibition at 1 µM turned out to be 43% and the inhibition at 10 µM stood at 71%.

`CC(C)C[C@H](NC(=O)N1CCCCCC1)C(=O)N[C@@H](Cc1ccc(C#CC2CCCCC2)cc1)C(=O)NC(C)(C)C` [Example 136, [S-(R*,R*)]-Azepane-1-carboxylic acid {1-[1-tert-butylcarbamoyl-2-(4-cyclohexylethynyl-phenyl)-ethylcarbamoyl]-3-methyl-butyl}-amide] had a melting point of 171 to 172 °C. In addition, the pIC50 in data set [1] was 5.81. In addition, in data set [2], the inhibition at 1 µM worked out at 45% and the inhibition at 10 µM was found to be 64%.

For the molecule `CC(C)C[C@H](NC(=O)N1CCCCCC1)C(=O)N[C@@H](Cc1ccc(C#Cc2ccccn2)cc1)C(=O)NC(C)(C)C` [Example 137, [S-(R*,R*)]-Azepane-1-carboxylic acid {1-[1-tert-butylcarbamoyl-2-(4-pyridin-2-ylethynyl-phenyl)-ethylcarbamoyl]-3-methyl-butyl}-amide], the pIC50 in data set [1] is 5.59.

`CC(C)C[C@H](NC(=O)N1CCCCCC1)C(=O)N[C@@H](Cc1ccc(C#CCN2CCS(=O)(=O)CC2)cc1)C(=O)NC(C)(C)C` [Example 140, [S-(R*,R*)]-Azepane-1-carboxylic acid [1-(1-tert-butylcarbamoyl-2-{4-[3-(1,1-dioxo-1l,6-thiomorpholin-4-yl)-prop-1-ynyl]-phenyl}-ethylcarbamoyl)-3-methyl-butyl]-amide] had a melting point of 117 to 118 °C. In addition, the negative-log IC50 (pIC50) in data set [1] was 5.52.

The molecule `CC(C)C[C@H](NC(=O)N1CCCCCC1)C(=O)N[C@@H](Cc1ccc(/C=C\C2CCCCC2)cc1)C(=O)NC(C)(C)C` [Example 142, [S-(R*,R*),Z]-Azepane-1-carboxylic acid (1-{1-tert-butylcarbamoyl-2-[4-(2-cyclohexyl-vinyl)-phenyl]-ethylcarbamoyl}-3-methyl-butyl)-amide] gave a melting point of 168 to 169 °C. Moreover, the negative-log IC50 (pIC50) in data set [1] was 6.17.

Turning to `CC(C)C[C@H](NC(=O)N1CCCCCC1)C(=O)N[C@@H](Cc1ccc(C=CC2(O)CCCCC2)cc1)C(=O)NC(C)(C)C` [Example 143, [S-(R*,R*)]-Azepane-1-carboxylic acid [1-(1-tert-butylcarbamoyl-2-{4-[2-(1-hydroxy-cyclohexyl)-vinyl]-phenyl}-ethylcarbamoyl)-3-methyl-butyl]-amide], the melting point was 125 °C (dec.). Besides, in data set [1], the negative-log IC50 (pIC50) was 5.89. Also, in data set [2], the inhibition at 1 µM amounted to 7% and the inhibition at 10 µM was 58%.

`CC(C)C[C@H](NC(=O)N1CCCCCC1)C(=O)N[C@@H](Cc1ccc(CCc2ccccc2)cc1)C(=O)NC(C)(C)C` [Example 144, [S-(R*,R*)]-Azepane-1-carboxylic acid {1-[1-tert-butylcarbamoyl-2-(4-phenethyl-phenyl)-ethylcarbamoyl]-3-methyl-butyl}-amide] showed a melting point of 155 to 156 °C. The negative logarithm of the IC50 (pIC50) in data set [1] was 6.26. Moreover, in data set [2], the inhibition at 1 µM is 61% and the inhibition at 10 µM was determined as 86%.

With `CC(C)C[C@H](NC(=O)N1CCCCCC1)C(=O)N[C@@H](Cc1ccc(CCC(C)(C)C)cc1)C(=O)NC(C)(C)C` [Example 145, [S-(R*,R*)]-Azepane-1-carboxylic acid (1-{1-tert-butylcarbamoyl-2-[4-(3,3-dimethyl-butyl)-phenyl]-ethylcarbamoyl}-3-methyl-butyl)-amide], the melting point was 180 to 181 °C. In addition, in data set [1], the pIC50 was 6.60. The inhibition at 1 µM in data set [2] was 48%.

For `CC(C)C[C@H](NC(=O)N1CCCCCC1)C(=O)N[C@@H](Cc1ccc(CCC2CCCCC2)cc1)C(=O)NC(C)(C)C` [Example 146, [S-(R*,R*)]-Azepane-1-carboxylic acid (1-{1-tert-butylcarbamoyl-2-[4-(2-cyclohexyl-ethyl)-phenyl]-ethylcarbamoyl}-3-methyl-butyl)-amide], the melting point is 165 °C. Moreover, the pIC50 in data set [1] is 6.66. The inhibition at 1 µM in data set [2] turned out to be 51%.

In the case of `CC(C)C[C@H](NC(=O)N1CCCCCC1)C(=O)N[C@@H](Cc1ccc(CCc2ccccn2)cc1)C(=O)NC(C)(C)C` [Example 147, [S-(R*,R*)]-Azepane-1-carboxylic acid (1-{1-tert-butylcarbamoyl-2-[4-(2-pyridin-2-yl-ethyl)-phenyl]-ethylcarbamoyl}-3-methyl-butyl)-amide], the melting point lay in the range of 154 to 156 °C. Moreover, the pIC50 in data set [1] is 5.29. In data set [2], the inhibition at 1 µM amounted to 25% and the inhibition at 10 µM was 71%.

Regarding `CC(C)C[C@H](NC(=O)N1CCCCCC1)C(=O)N[C@@H](Cc1ccc(CCCN2CCS(=O)(=O)CC2)cc1)C(=O)NC(C)(C)C` [Example 150, [S-(R*,R*)]-Azepane-1-carboxylic acid [1-(1-tert-butylcarbamoyl-2-{4-[3-(1,1-dioxo-1l,6-thiomorpholin-4-yl)-propyl]-phenyl}-ethylcarbamoyl)-3-methyl-butyl]-amide], the melting point lay in the range of 92 to 93 °C. In addition, the pIC50 in data set [1] was 5.52.

Consider `CC(C)C[C@H](NC(=O)N1CCCCCC1)C(=O)N[C@@H](Cc1ccc(OCc2ccccc2)cc1)C(=O)NCCN1CCOCC1` [Example 186, [S-(R*,R*)]-Azepane-1-carboxylic acid {1-[2-(4-benzyloxy-phenyl)-1-(2-morpholin-4-ylethylcarbamoyl)-ethylcarbamoyl]-3-methyl-butyl}-amide], for which the pIC50 in data set [1] was 5.52; in data set [2], 5.74.
